The test system of this experiment is CEM cells HIV-1 protection, formazan growth assay. The experiment in a line: NCI AIDS Antiviral Assay. Conditions: for IC50: measured here: growth of uninfected CEM cells. Put shortly: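 Human CEM cells, uninfected and HIV-1-infected, received five drug concentrations, and growth was read by soluble formazan assay. Compounds giving at least 50% protection were retested; reproducible 100% protection defined confirmed active.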

Active and inactive are the calls of the source.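 How the source made its calls: active means compounds giving half or more protection of infected cells from virus-caused growth loss, again on retest; inactive means the rest.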

One may read the EC50 as the concentration giving half of the maximal effect. What is called IC50 is the concentration that inhibits the measured activity by half. Consider `COc1ccc(-n2c(SCC(=O)NC(=O)Nc3ccccc3)nc3c(Br)cc(Br)cc3c2=O)cc1`, for which the EC50 is greater than 200 µM and the IC50 is greater than 200 µM.
Regarding `Nc1c(-c2nc3ccccc3s2)[n+]([O-])c2ccccc2[n+]1[O-]`, the result was inactive.
On to `CN/N=C(/CCN1CCCC1)CC(c1ccccc1)c1c(O)c2ccccc2oc1=O` (stereo not drawn), for which the EC50 was greater than 93.3 µM and the IC50 came to 74.1 µM.
Taken in the same sequence, the figures for `Cc1cc(S(=O)(=O)Nc2n[nH]c(Nc3ccccc3)n2)c(SCC(=O)O)cc1Cl` were greater than 200 µM and greater than 200 µM.
Taken in the same sequence, the figures for `CCO[C@@]12CCC3CC4CC[C@@](OCC)(O1)C4C32` (stereo partly drawn) were greater than 200 µM and greater than 200 µM.
For `O=P(c1ccccc1)(c1ccccc1)P(=O)(c1ccccc1)c1ccccc1`, the EC50 is greater than 200 µM and the IC50 is greater than 200 µM.
As for `Cc1cccc(/C=N/NC(=S)NC2CCCCC2)n1`, the EC50 is greater than 200 µM and the IC50 was 10 µM.
Turning to `CC(C)C(NCc1c2ccccc2[n+](C)c2ccccc12)C(=O)O` (stereo not drawn), the outcome was inactive.
In the case of `C=CCNC(=S)N/C=C(\C#N)C(N)=O`, the EC50 is greater than 200 µM and the IC50 was greater than 200 µM.
Turning to `O=C1CC2Sc3ccccc3N=C2N1c1ccc(Cl)cc1Cl` (stereo not drawn), the EC50 was greater than 269 µM and the IC50 was 47.9 µM.
`CC(=O)OCC(OC(C)=O)C(Cl)CCl` (stereo not drawn): the EC50 was greater than 200 µM and the IC50 is greater than 200 µM.
On to `O=c1cc(-c2ccccc2)nc(/C=C(\O)c2ccncc2)n1-c1ccccc1`, for which the EC50 was greater than 3.98 µM and the IC50 was greater than 3.98 µM.
As for `O=C(NC(CO)C(=O)N[C@H]1c2ccsc2C(=O)[C@H]1O)OCc1ccccc1` (stereo partly drawn), the outcome was inactive.
Turning to `O=[N+]([O-])CC(SCc1ccccc1)c1ccc2c(c1)OCO2` (stereo not drawn), the outcome was inactive.
In the case of `O=P1(N(CCCl)CCCl)NCCCO1` (stereo not drawn), the EC50 is greater than 955 µM and the IC50 was 302 µM.
The like results for `C=C1[C@H]2CC[C@H]3C45CO[C@@H](CC4=O)C(C)(C)C5=C(O)C(=O)C3(C2)[C@@H]1OC(C)=O` were, in that order, greater than 18.6 µM and greater than 18.6 µM.
In the case of `COC1/C=C/OC2(C)Oc3c(C)c(O)c4c(O)c(c(/C=N/NC5CCCCCCCCCCCCCC5)c(O)c4c3C2=O)NC(=O)/C(C)=C\C=C\C(C)C(O)C(C)C(O)C(C)C(OC(C)=O)C1C` (stereo not drawn), the EC50 is greater than 200 µM and the concentration for half-maximal inhibition (IC50) was 10.5 µM.
Turning to `Cn1c(N)c(/C=N/NC(=O)CC#N)c(=O)n(C)c1=O`, the EC50 was greater than 200 µM and the IC50 was greater than 200 µM.
On to `OC1CC=C2CCN3Cc4cc5c(cc4C1C23)OCO5` (stereo not drawn), for which the result was inactive.
For the molecule `O=C(O)c1cc(C(=O)Nc2ccc(C3=NCCN3)cc2)c(C(=O)O)cc1C(=O)Nc1ccc(C2=NCCN2)cc1`, the EC50 is greater than 200 µM and the IC50 is greater than 200 µM.
For `O=c1c2ccccc2nc(-c2ccccc2)n1NC1OC(CO)C(O)C(O)C1O` (stereo not drawn), the result was inactive.
Take `Nc1nc(NC2CC2)c2ncn(C3C=CC(CO)CC3)c2n1` (stereo not drawn): the EC50 was greater than 200 µM and the IC50 was greater than 200 µM.
Regarding `Cn1c(-c2ccc(/C=N/NC(=S)N/N=C/c3ccc(-c4c[n+]5ccsc5n4C)cc3)cc2)c[n+]2ccsc12`, the EC50 was greater than 200 µM and the IC50 came to 117 µM.
Take `O=C1OC(/C=C/c2ccccc2)C(=O)C1=O` (stereo not drawn): the EC50 is greater than 1150 µM and the IC50 was greater than 1150 µM.
On to `CCN(CC)CCn1ncc2ccc3c(c(=O)c4cccnc4n3CCN(CC)CC)c21`, for which the EC50 is greater than 20 µM and the IC50 was found to be 0.309 µM.
On to `CCOC(=O)N/N=C(/N)Cc1ccccc1`, for which the EC50 was greater than 200 µM and the IC50 was greater than 200 µM.
Consider `CC(C)(C)Cc1cssc1=S`, for which the EC50 was greater than 200 µM and the IC50 was greater than 200 µM.
For `Cn1c(=O)c2[nH]c(N/N=N/c3nncs3)nc2n(C)c1=O`, the EC50 is greater than 200 µM and the IC50 was greater than 200 µM.
For the molecule `C(#CP(c1ccccc1)c1ccccc1)P(c1ccccc1)c1ccccc1.C(#CP(c1ccccc1)c1ccccc1)P(c1ccccc1)c1ccccc1.C(#CP(c1ccccc1)c1ccccc1)P(c1ccccc1)c1ccccc1.C(#CP(c1ccccc1)c1ccccc1)P(c1ccccc1)c1ccccc1.[Pt].[Pt]`, the EC50 was greater than 6.92 µM and the IC50 was 4.79 µM.
On to `CCOC(=O)C1=C(C)N(c2ccc(C)cc2)C2=C(C(=O)N(c3ccccc3)C2c2ccccc2)C1c1ccccc1` (stereo not drawn), for which the EC50 is greater than 5.01 µM and the half-inhibitory concentration (IC50) was greater than 5.01 µM.
Regarding `CC(=O)OC(OC(C)=O)n1cc(C=O)c2ccccc21`, the EC50 is greater than 200 µM and the half-maximal inhibitory concentration (IC50) is greater than 200 µM.
In the case of `COC(=O)c1cc(=O)nc2cc3cccccc3n12`, the result was inactive.
On to `[Cu+2].[O-]/N=C/c1ccc(O)cc1[O-].[O-]/N=C/c1ccc(O)cc1[O-]`, for which the EC50 is greater than 26.9 µM and the IC50 amounted to 13.2 µM.
Turning to `N#Cc1c(-c2ccco2)c2c(n(C3OC(CO)C(O)C(O)C3O)c1=S)CCCC2` (stereo not drawn), the EC50 is greater than 200 µM and the concentration for half-maximal inhibition (IC50) amounted to 110 µM.
Regarding `O=C1c2c(O)cccc2C(C(=O)CCCCCC(=O)C2c3cccc(O)c3C(=O)c3c(O)cccc32)c2cccc(O)c21`, the EC50 was greater than 6.61 µM and the IC50 was 6.17 µM.
As for `Cn1c(N)c(C(N)=O)[nH]c1=S`, the EC50 is greater than 200 µM and the IC50 is greater than 200 µM.
As for `CCCC/C(CC)=N/NS(=O)(=O)c1ccc(NC(C)=O)cc1`, the EC50 is greater than 398 µM and the IC50 was found to be 288 µM.
For `CCOC(=O)C1C(c2ccc(OC)cc2)c2c([nH]n(-c3ccccc3)c2=O)CC1(O)OCC` (stereo not drawn), the EC50 was greater than 200 µM and the IC50 stood at 9.12 µM.
Regarding `O=C(/C=C/c1ccc(O)c(O)c1O)OCCc1ccccc1`, the EC50 was greater than 200 µM and the IC50 is 2.34 µM.
The like results for `COC1C(=O)CCC2(CO2)C1(O)C1(C)OC1CCC(C)C` (stereo not drawn) were, in that order, greater than 200 µM and 4.37 µM.
The like results for `O=C(NCCCNC(=O)c1ccccc1O)c1ccccc1O` were, in that order, greater than 200 µM and 69.2 µM.
`Cc1nc2c3c(ncn2n1)Oc1c(c(-c2ccccc2)nn1-c1ccccc1)C3c1ccc(Cl)cc1` (stereo not drawn): the EC50 is greater than 200 µM and the IC50 was greater than 200 µM.
`C[C@H](CCc1nc(C#N)c(N)o1)[C@H]1CC[C@H]2[C@@H]3[C@@H](O)CC4C[C@@H](O)CC[C@]4(C)[C@H]3C[C@@H](O)[C@]12C` (stereo partly drawn): the EC50 was greater than 200 µM and the half-inhibitory concentration (IC50) was 16.6 µM.
`CNC(=S)N(C)C(=S)Nn1c(=O)c(C)nn(C)c1=S`: the EC50 was 18.6 µM and the IC50 was greater than 200 µM.
With `O=C(Nc1cc(Cl)c(Cl)cc1Cl)C(=O)C(C(=O)c1ccccc1)C1OC(=O)c2ccccc21` (stereo not drawn), the result was inactive.
Take `CC(C)(C)OC[C@H]1N([C@H](COCc2ccccc2)c2ccccc2)C(=O)C1(C)C`: the EC50 is greater than 170 µM and the IC50 was 117 µM.
Take `O=C(O)c1cc(O)c2c(c1)Cc1cccc(O)c1C2=O`: the EC50 is greater than 200 µM and the IC50 is 28.8 µM.
As to `CC(O)c1c2c(cc3c1CC1(C3)Cc3cc4c(c(C(C)O)c3C1)CCC4)CCC2` (stereo not drawn), the EC50 was greater than 200 µM and the 50% inhibitory concentration (IC50) stood at 9.55 µM.
As to `O=c1oc2c(O)c(O)cc3c(=O)oc4c(O)c(O)cc1c4c23`, the EC50 was greater than 66.1 µM and the half-maximal inhibitory concentration (IC50) turned out to be 42.7 µM.
With `CN(C)P1(=O)N(c2ccccc2)P(=O)(N(C)C)N1c1ccccc1` (stereo not drawn), the EC50 was greater than 224 µM and the IC50 is greater than 224 µM.
For the molecule `CCc1ccccc1NC(=O)C(=O)C(C(=O)c1ccc(OC)cc1)c1ccc(OC)cc1` (stereo not drawn), the outcome was inactive.
As for `OC1CCCCCCCCCCC1SCCCCl` (stereo not drawn), the EC50 was greater than 200 µM and the IC50 is greater than 200 µM.
In the case of `COc1ccc(-c2c(C(=O)O)oc3cc(O)ccc3c2=O)cc1OC`, the EC50 was greater than 200 µM and the IC50 is greater than 200 µM.
As for `C[N+](C)([O-])Cc1cccc(NC(=O)c2ccc(C(=O)Nc3cccc(C[N+](C)(C)[O-])c3)cc2)c1`, the EC50 is greater than 200 µM and the IC50 is greater than 200 µM.
In the case of `O=C(N/C(=C\c1ccc([N+](=O)[O-])cc1)c1nc2[nH]c(=S)[nH]c(=O)c2[nH]1)c1ccccc1`, the result was inactive.
Regarding `Cc1cn(C2CC(N=[N+]=[N-])C(COC(=O)CCCCCCCCCCCN=[N+]=[N-])O2)c(=O)[nH]c1=O` (stereo not drawn), the EC50 was 0.0372 µM and the IC50 worked out at 182 µM.
Turning to `CCN(CC)C(=S)SS(=O)(=O)c1cccc(N)c1`, the EC50 is greater than 200 µM and the IC50 is greater than 200 µM.
As to `Cc1ccc(NP2(=O)N(Cc3ccc(Cl)cc3)CCCN2Cc2ccc(Cl)cc2)cc1`, the EC50 is greater than 200 µM and the IC50 was 11 µM.
Regarding `N#CC12CC(C=O)=C(N)C1(C#N)CC(C=O)=C2N` (stereo not drawn), the EC50 was greater than 200 µM and the IC50 turned out to be 14.8 µM.
For `O=S1c2ccccc2SCSc2ccccc21`, the EC50 was greater than 200 µM and the IC50 is greater than 200 µM.
As for `CCOC(=O)/C(=C\c1cccc(OC)c1)[Se]c1ccccc1`, the EC50 is greater than 14.5 µM and the IC50 was 7.59 µM.
Taken in the same sequence, the figures for `Cc1ccc2c3c(c(=O)oc2c1)[C@H](C)C[C@@](C)(CO)O3` were greater than 200 µM and 178 µM.
In the case of `O=Cc1ccc(C=O)n1C1CCOC1=O` (stereo not drawn), the result was inactive.
Regarding `COc1ccc(/C=C2/C(=O)NC3SC=C(c4cccc([N+](=O)[O-])c4)N23)cc1` (stereo not drawn), the EC50 was greater than 200 µM and the 50% inhibitory concentration (IC50) was found to be 83.2 µM.
Turning to `N#CC(NCCc1ccccc1)c1ccc(C(C#N)NCCc2ccccc2)cc1` (stereo not drawn), the EC50 was greater than 200 µM and the IC50 was 10.5 µM.
As to `CCOC(=O)C1N(S(=O)(=O)c2ccc(C)cc2)CCC12c1ccccc1NC2c1ccc(OC)c(OC)c1` (stereo not drawn), the result was inactive.
`Cc1ccc(C(=O)/C=C2/SS/C(=C/C(=O)c3ccc(C)cc3)S2)cc1`: the EC50 is greater than 200 µM and the IC50 is greater than 200 µM.
Regarding `N#CC1=C(N)Oc2c(ccc3cccnc23)C1c1ccccc1` (stereo not drawn), the EC50 was greater than 120 µM and the IC50 came to 1.7 µM.
On to `COc1ccc(CC2C(=O)NC(=O)NC2=O)cc1OCc1ccccc1`, for which the result was inactive.
Regarding `CN1CCC[C@H]1C(=O)c1oc(CO)cc(=O)c1O`, the result was inactive.
Turning to `CCN(CC)CCOc1ccc(/C(C#N)=C/c2ccc(C(F)(F)F)cc2)cc1`, the EC50 is greater than 20 µM and the 50% inhibitory concentration (IC50) came out at 1.23 µM.

Values taken from PubChem BioAssay AID179 (DTP/NCI, 2004).
